Measurements published in patent US20040234531A1, “Chimeric human leukocyte antigen and epitope-bearing molecules having immunosuppressant activity” (priority 2001, published 2004).

Legend:
[1] = tested on: lymph node cells from proinsulin-immunized HLA-DR4 transgenic mice; experiment: Proliferation and cytokines of lymph node cells from HLA-DR4 transgenic mice immunized with p73-90 proinsulin peptide; format: cell-based, mouse
Method: (§1) FIG. 9A-C. Potency of human DEF molecules in activating murine specific T cells. (A) Lymph node cells (3×10^5) from HLA-DR4 transgenic mice immunized with p271-285 GAD65 peptide were cultured for five dats in the presence of spleen cells (2×10^5) from naive HLA-DR4 mice and 5, 10 or 15 μg/ml of GAD65 peptide or 0.05, 0.5 or 1 μg/ml of DEF-GAD65. (B) Using the same protocol as for (A), cells from mice immunized withp73-90 proinsulin peptide wee stimulated with the same doses of proinsulin peptide or DEF-Pi. […] The proliferative responses are expressed as Δcpm=specific cpm−background cpm.
(§2) HLA-DR*0401 +/+, Abb −/− mice ([…], Taconic, Germantown, N.Y.) expressthe α1β1 domains of HLA-DR*0401 linked to the α2β2 domains of I-E^d, and at the same time are deficient for endogenous MHC class II (1-A^b, I-E^b) molecules (Abb −/−).
(§3) Groups of five mice were immunized in the footpads with either 100 micrograms of p271-285 GAD65 peptide or p73-90 proinsulin peptide in Complete Freund's Adjuvant (“CFA”). Lymph nodes were harvested ten days later and cells from GAD65-immunized mice were stimulated in vitro with various doses of p271-285 synthetic peptide, DEF-GAD65 or empty DEF molecules. […] The amount of peptide carried by the human DEF molecules was normalized on a molar basis, and the immunopotency determined as described in Casares et al., 1999, 3. […]

[2] = tested on: lymph node cells from GAD65-immunized HLA-DR4 transgenic mice; experiment: Proliferation and cytokines of lymph node cells from HLA-DR4 transgenic mice immunized with p271-285 GAD65 peptide; format: cell-based, mouse
Method: as §1, §2, §3

proinsulin peptide GAGSLQPLALEGSLQKRG (SEQ ID NO: 43) (listed as Homo sapiens) [p73-90]
EC50 ([1]; cells from proinsulin-immunized mice, read-out: Half-maximal proliferation of stimulated cells): 2500 nM | cytokine production in culture supernatants ([1]; day 5, ELISA): secreted IL-2 but not IL-10

GAD65 peptide PRLIAFTSEHSHFSL (SEQ ID NO:10) (listed as Homo sapiens) [p271-285]
EC50 ([2]; cells from GAD65-immunized mice, read-out: Half-maximal proliferation of stimulated cells): 1000 nM | cytokine production in culture supernatants ([2]; day 5, ELISA): also secreted IL-10
